In patent US5939403A, “Keratan sulfate oligosaccharide fraction and pharmaceutical containing the same” (Seikagaku Corporation, priority 1994, dated 1999):

What was measured:
carrageenin pleurisy = assay: Carrageenin pleurisy model; assay type: in vivo, Female S.D. rats; details: dexamethasone acetate 150 μg/kg s.c.; six hours
Procedure: The effect of the keratan sulfate oligosaccharide was examined with the carrageenin pleurisy model of rats which is generally used for evaluation of anti-inflammatory agents.
Female S.D. rats (n=37) of about 150 to 170 g weight were used for the test. The λ-carrageenin (Sigma) was dissolved in saline to a concentration of 2%, and the solution was filtered with a 0.8 μm filter. The carrageenin solution obtained was intrathoracically administered at 100 μl/animal to prepare the pleurisy model.
To the pleurisy model of rats (n=19) described above, the keratan sulfate tetrasaccharide (I) dissolved in PBS was subcutaneously (s.c.) administered in 20 mg/kg or 10 mg/kg dose. And as the positive control, steroid (dexamethasone acetate; Banyu Pharmaceutical) was subcutaneously administered to the eight rats described above in 150 μg/kg which was the clinical dose. As the negative control, PBS was subcutaneously administered to the 10 rats. Each administration was carried out immediately after the administration of carrageenin.
Each rat was anatomized six hours after the administration of λ-carrageenin. The thoracic cavity of the rats was opened to collect the retained pleural fluid using a 2-ml syringe with probe. After that, inside of the thoracic cavity was washed with 1 ml of saline, and the washing solution was recovered. The volume of the pleural fluid recovered with the syringe was determined, and the number of leukocyte (cell number) in the pleural fluid was determined by an automatic cytometer. The results are be shown in FIG. 8 and FIG. 9, respectively. In the figures, * and ** represent that they have the significant difference with p<0.05 and p<0.01, respectively (wherein "p" means a level of significance by the Duncan test).

[1] = tested on: foot edema reversed passive Arthus reaction; assay: Foot edema reversed passive Arthus reaction; assay type: in vivo, Male Crj:SD rats
Procedure: The effect of the keratan sulfate oligosaccharide was examined on the foot edema reversed passive Arthus reaction of rats, which is a type III allergic inflammation model. That is, the rabbit antiovalbumin serum was subcutaneously administered to the planta of the rats which were previously subjected to the administration of the test substances, furthermore ovalbumin was administered by injection into the caudal vein thereof to induce inflammation (edema), and the inhibitory effect on edema of the test substances was examined.
Male Crj:SD rats of five weeks old were subjected to a fast of about 17 hours after a week period of quarantine, and, before inducing inflammation, subjected to the administration of the purified keratan sulfate tetrasaccharide (I) which was prepared in Example 1, indomethacin (Sigma; Lot No. 19F0018), or dexamethasone (Banyu Pharmaceutical); Decadron injection; Lot No. 8D307P) as the test substances, or saline (Otsuka Pharmaceutical; Lot No. K3H72) as the negative control. The keratan sulfate tetrasaccharide (I) and dexamethasone were dissolved in saline, respectively, and the indomethacin was dissolved in 0.5% sodium carboxymethylcellulose (CMC-Na; Wako Pure Chemical Industries; Lot No. PTN1418) in use. The volume of dose was 0.5 ml per 100 g weight in each test. Concerning the route of administration, the keratan sulfate tetrasaccharide (I), saline, and dexamethasone were administered from the caudal vein, and the indomethacin was orally administered. And the substances except for indomethacin were administered by the blind method.
The dose and administration schedule of each test substance were as follows. Each group consisted of five animals.
The rabbit antiovalbumin serum was subcutaneously administered to each of the rats described above on the planta thereof, and ovalbumin was further administered by injection into the caudal vein to induce inflammation foot edema. The antiserum used was prepared as follows. That is, to the regions of back of rabbits, 1 ml of the equivalently mixed solution (emulsion) of the saline containing 2% ovalbumin (10 mg per one animal, Egg Albumin 5×Cryst, Lot No. P93601; Seikagaku Corporation) and the Freund's complete adjuvant (FCA) was intradermally injected once a week three times totally to subject themselves to sensitization. About 34 days after the last sensitization, the blood was drawn to obtain the antiserum. The antibody titer of the antiserum obtained was determined by the double layer method. Namely, the determination was performed using the white precipitation reaction of the antiserum diluted with saline and the saline containing 0.1% ovalbumin (1 mg/ml) as the indicator. As a result, the antibody titer of the antiserum obtained was x2^7.
After the period which is designed for each group, each 0.1 ml of the sixfold diluted antiserum was subcutaneously administered to the planta of left rear foot of the rats which were subjected to the administration of each test substance. Then, the saline containing 0.5% ovalbumin (25 mg/5 ml/kg) was administered into the caudal vein to induce inflammation. The volume of the treated feet in each group was determined before inducing inflammation, and one, two, three and four hours after inducing inflammation by a foot volume determining device (TK-101, Unicom) to yield the foot edematization rate from the difference from the value before the induction, and the edematization inhibitory rate of the test substance administered group to the control group was calculated. In each edematization rate obtained, the difference between the averages was tested by the minimum significant difference test. The foot edematization rate and the edematization inhibitory rate of each administered group are shown in Table 9, and the foot edematization rate of the administered groups which was subjected to the administration of the agent at five minutes and at three hours before inducing inflammation are shown in FIG. 6 and FIG. 7, respectively. […]

CC(=O)OCC(=O)[C@@]1(O)[C@H](C)C[C@H]2[C@@H]3CCC4=CC(=O)C=C[C@]4(C)[C@@]3(F)[C@@H](O)C[C@@]21C [Dexamethasone Acetate, dexamethasone acetate, reference compound]
number of leukocyte in pleural fluid (FIG. 9) (carrageenin pleurisy): significantly less than that in the control group
quantity of pleural fluid (FIG. 8) (carrageenin pleurisy): significantly less than that in the negative control group

C[C@@H]1C[C@H]2[C@@H]3CCC4=CC(=O)C=C[C@]4(C)[C@@]3(F)[C@@H](O)C[C@]2(C)[C@@]1(O)C(=O)CO [Dexamethasone, dexamethasone, reference compound]
Inhibitory Rate ([1]; 1 Hour Later, dexamethasone 1 mg/kg i.v. at 3 hours before inducing edema): 47.8%
Edematization Rate ([1]; 1 Hour Later, dexamethasone 1 mg/kg i.v. at 3 hours before inducing edema, P < 0.01, control 40.9): 21.3 ± 3.1%
Inhibitory Rate ([1]; 2 Hours Later, dexamethasone 1 mg/kg i.v. at 3 hours before inducing edema): 31.7%
Edematization Rate ([1]; 2 Hours Later, dexamethasone 1 mg/kg i.v. at 3 hours before inducing edema, P < 0.01, control 46.3): 31.6 ± 2.2%
Inhibitory Rate ([1]; 3 Hours Later, dexamethasone 1 mg/kg i.v. at 3 hours before inducing edema): 39.9%
Edematization Rate ([1]; 3 Hours Later, dexamethasone 1 mg/kg i.v. at 3 hours before inducing edema, P < 0.01, control 51.2): 30.7 ± 1.5%
Inhibitory Rate ([1]; 4 Hours Later, dexamethasone 1 mg/kg i.v. at 3 hours before inducing edema): 58.1%
Edematization Rate ([1]; 4 Hours Later, dexamethasone 1 mg/kg i.v. at 3 hours before inducing edema, P < 0.01, control 44.9): 18.8%
foot edematization rate, significance (result in words) ([1]; dexamethasone 1 mg/kg, three hours before): significantly low values were observed at any determination point between one and four hours after inducing inflammation

COc1ccc2c(c1)c(CC(=O)O)c(C)n2C(=O)c1ccc(Cl)cc1 [Indomethacin, indomethacin, reference compound]
Inhibitory Rate ([1]; 1 Hour Later, 5 mg/kg oral at 30 minutes before inducing edema): 13.5%
Edematization Rate ([1]; 1 Hour Later, 5 mg/kg oral at 30 minutes before inducing edema, control 40.9): 35.4 ± 1.6%
Inhibitory Rate ([1]; 2 Hours Later, 5 mg/kg oral at 30 minutes before inducing edema): 17.5%
Edematization Rate ([1]; 2 Hours Later, 5 mg/kg oral at 30 minutes before inducing edema, P < 0.05, control 46.3): 38.2 ± 2.9%
Inhibitory Rate ([1]; 3 Hours Later, 5 mg/kg oral at 30 minutes before inducing edema): 9.0%
Edematization Rate ([1]; 3 Hours Later, 5 mg/kg oral at 30 minutes before inducing edema, control 51.2): 46.4 ± 2.8%
Inhibitory Rate ([1]; 4 Hours Later, 5 mg/kg oral at 30 minutes before inducing edema): 13.8%
Edematization Rate ([1]; 4 Hours Later, 5 mg/kg oral at 30 minutes before inducing edema, P < 0.05, control 44.9): 38.7 ± 3.1%
foot edematization rate, significance (result in words) ([1]; indomethacin 5 mg/kg oral, 30 minutes before): significantly low values were observed after two hours and after four hours
